{"source": "paper PMC9403976", "about": "“Elucidating the path to Plasmodium prolyl-tRNA synthetase inhibitors that overcome halofuginone resistance” (Nature Communications, 2022)", "key": {"[1]": {"test_system": "P. falciparum Dd2-2D4", "experiment": "P. falciparum asexual blood stage (ABS) growth assay, SYBR Green, 72 h, wild-type parasites", "assay_type": "cell-based, Plasmodium falciparum"}, "[2]": {"molecular_target": "T1, PfcProRS (Plasmodium falciparum, UniProt Q8I5R7)", "T1 construct": "made in house; host or cells: E. coli SoluBL-21", "T1 sequence (Q8I5R7 249-746)": "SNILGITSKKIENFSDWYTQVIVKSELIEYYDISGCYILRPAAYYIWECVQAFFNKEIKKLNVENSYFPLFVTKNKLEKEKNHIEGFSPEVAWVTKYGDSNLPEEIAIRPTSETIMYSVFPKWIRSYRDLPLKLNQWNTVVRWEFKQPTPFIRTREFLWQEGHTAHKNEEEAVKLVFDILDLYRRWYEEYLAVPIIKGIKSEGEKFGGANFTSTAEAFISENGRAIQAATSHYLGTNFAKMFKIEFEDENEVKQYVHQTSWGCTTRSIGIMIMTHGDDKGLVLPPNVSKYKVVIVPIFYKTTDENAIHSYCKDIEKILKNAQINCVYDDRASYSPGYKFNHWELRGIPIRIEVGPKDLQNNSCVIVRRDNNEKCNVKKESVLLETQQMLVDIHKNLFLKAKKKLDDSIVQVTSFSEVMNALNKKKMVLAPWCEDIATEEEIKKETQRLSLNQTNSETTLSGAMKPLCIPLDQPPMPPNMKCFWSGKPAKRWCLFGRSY", "assay_type": "binding", "conditions": "single replicates"}, "[3]": {"molecular_target": "HsProRS (Homo sapiens, UniProt P07814)", "sequence (P07814 996-1512)": "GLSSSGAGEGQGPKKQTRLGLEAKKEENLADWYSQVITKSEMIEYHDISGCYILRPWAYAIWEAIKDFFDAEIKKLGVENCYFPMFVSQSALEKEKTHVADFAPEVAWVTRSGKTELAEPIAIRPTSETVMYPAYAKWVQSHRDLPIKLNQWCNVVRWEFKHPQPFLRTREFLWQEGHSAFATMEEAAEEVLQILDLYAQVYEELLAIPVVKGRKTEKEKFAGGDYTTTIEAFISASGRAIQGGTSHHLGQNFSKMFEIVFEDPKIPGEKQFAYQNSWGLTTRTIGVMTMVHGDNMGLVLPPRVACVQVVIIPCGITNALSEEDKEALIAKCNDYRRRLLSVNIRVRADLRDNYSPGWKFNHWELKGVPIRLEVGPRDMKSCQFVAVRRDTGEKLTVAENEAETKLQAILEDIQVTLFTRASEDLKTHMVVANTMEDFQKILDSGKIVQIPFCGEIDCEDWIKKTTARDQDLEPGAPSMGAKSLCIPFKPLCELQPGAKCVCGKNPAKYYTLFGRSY", "experiment": "TR-FRET ligand displacement assay with tracer MAT379 (CoraFluor-1-Halo and anti-His6 antibody formats)", "assay_type": "binding", "set-up": "made in house; host or cells: E. coli SoluBL-21", "conditions": "for TR-FRET dose-response, normalized signal (SI Fig 11): individual replicates"}}, "note": "Values joined by “and” are separate entries in the source; they are usually repeats but may differ in a detail not shown here. Equal values may be shown once. Read-outs that look alike come from different tables or passages of the source."}
{"smiles": "O=C(O)CCCC(=O)Nc1nccnc1C(=O)NC1Cc2ccccc2C1", "note": "[compound 22]", "values": [{"measurement": "dose-response value per replicate (SI Fig 2g)", "setting": "[1]; Log[inhibitor] (M) -7.408", "result": 111}, {"measurement": "EC50", "setting": "[1]; Plasmodium falciparum, DD2, SI Fig 16b, values on -log scale, read-out: ABS - Dd2-2D4 (converted)", "result": 12.3, "unit": "µM"}, {"measurement": "dose-response signal (normalized), SI Fig 8", "setting": "[2]; Log[inhibitor] (M) -5.000", "result": "9.06E-01 and 9.64E-01 and 8.26E-01"}, {"measurement": "dose-response signal (normalized), SI Fig 8", "setting": "[2]; Log[inhibitor] (M) -5.301", "result": "1.01E+00 (2×) and 9.72E-01"}, {"measurement": "dose-response signal (normalized), SI Fig 8", "setting": "[2]; Log[inhibitor] (M) -5.601", "result": "9.26E-01 and 1.02E+00 and 9.22E-01"}, {"measurement": "dose-response signal (normalized), SI Fig 8", "setting": "[2]; Log[inhibitor] (M) -5.904", "result": "9.72E-01 and 1.05E+00 and 1.09E+00"}, {"measurement": "dose-response signal (normalized), SI Fig 8", "setting": "[2]; Log[inhibitor] (M) -6.208", "result": "1.07E+00 (2×) and 9.87E-01"}, {"measurement": "dose-response signal (normalized), SI Fig 8", "setting": "[2]; Log[inhibitor] (M) -6.509", "result": "1.07E+00 and 1.14E+00 and 1.02E+00"}, {"measurement": "dose-response signal (normalized), SI Fig 8", "setting": "[2]; Log[inhibitor] (M) -6.796", "result": "9.89E-01 and 1.07E+00 and 9.33E-01"}, {"measurement": "dose-response signal (normalized), SI Fig 8", "setting": "[2]; Log[inhibitor] (M) -7.108", "result": "1.06E+00 and 1.00E+00 and 1.02E+00"}, {"measurement": "dose-response signal (normalized), SI Fig 8", "setting": "[2]; Log[inhibitor] (M) -7.409", "result": "9.62E-01 and 1.08E+00 and 9.97E-01"}, {"measurement": "dose-response signal (normalized), SI Fig 8", "setting": "[2]; Log[inhibitor] (M) -7.710", "result": "1.02E+00 and 9.90E-01 and 1.13E+00"}, {"measurement": "dose-response signal (normalized), SI Fig 8", "setting": "[2]; Log[inhibitor] (M) -8.000", "result": "1.05E+00 (2×) and 1.10E+00"}, {"measurement": "dose-response signal (normalized), SI Fig 8", "setting": "[2]; Log[inhibitor] (M) -8.301", "result": "1.05E+00 and 1.11E+00 and 1.20E+00"}, {"measurement": "dose-response signal (normalized), SI Fig 8", "setting": "[2]; Log[inhibitor] (M) -8.602", "result": "9.67E-01 and 1.09E+00 and 1.08E+00"}, {"measurement": "dose-response signal (normalized), SI Fig 8", "setting": "[2]; Log[inhibitor] (M) -9.000", "result": "9.27E-01 and 1.05E+00 and 1.07E+00"}, {"measurement": "dose-response signal (normalized), SI Fig 8", "setting": "[2]; Log[inhibitor] (M) -9.301", "result": "1.08E+00 and 1.15E+00 and 9.88E-01"}, {"measurement": "IC50", "setting": "[3]", "result": "> 10", "unit": "µM"}, {"measurement": "HsProRS % signal at 10 μM, + 100 μM proline", "setting": "[3]; + 100 μM proline, 10 μM", "result": 79.2, "unit": "%"}, {"measurement": "normalized TR-FRET ligand displacement signal, dose-response replicates (SI Fig 6)", "setting": "[3]; Log[inhibitor] (M) -5.000", "result": "6.88E-01 and 7.76E-01 and 7.44E-01"}, {"measurement": "TR-FRET dose-response, normalized signal (SI Fig 11)", "setting": "[3]; Log[inhibitor] (M) -5.000", "result": "7.43E-01 and 6.59E-01 and 7.38E-01"}, {"measurement": "normalized TR-FRET ligand displacement signal, dose-response replicates (SI Fig 6)", "setting": "[3]; Log[inhibitor] (M) -5.301", "result": "8.82E-01 (2×) and 7.80E-01"}, {"measurement": "TR-FRET dose-response, normalized signal (SI Fig 11)", "setting": "[3]; Log[inhibitor] (M) -5.301", "result": "8.33E-01 and 8.41E-01 and 8.52E-01"}, {"measurement": "normalized TR-FRET ligand displacement signal, dose-response replicates (SI Fig 6)", "setting": "[3]; Log[inhibitor] (M) -5.601", "result": "8.80E-01 and 9.45E-01 and 8.65E-01"}, {"measurement": "TR-FRET dose-response, normalized signal (SI Fig 11)", "setting": "[3]; Log[inhibitor] (M) -5.601", "result": "9.39E-01 and 8.79E-01 and 9.13E-01"}, {"measurement": "normalized TR-FRET ligand displacement signal, dose-response replicates (SI Fig 6)", "setting": "[3]; Log[inhibitor] (M) -5.904", "result": "1.02E+00 and 1.06E+00 and 9.13E-01"}, {"measurement": "TR-FRET dose-response, normalized signal (SI Fig 11)", "setting": "[3]; Log[inhibitor] (M) -5.904", "result": "9.47E-01 and 9.57E-01 and 9.01E-01"}, {"measurement": "normalized TR-FRET ligand displacement signal, dose-response replicates (SI Fig 6)", "setting": "[3]; Log[inhibitor] (M) -6.208", "result": "1.04E+00 and 1.02E+00 and 9.07E-01"}, {"measurement": "TR-FRET dose-response, normalized signal (SI Fig 11)", "setting": "[3]; Log[inhibitor] (M) -6.208", "result": "1.02E+00 and 9.48E-01 and 9.47E-01"}, {"measurement": "normalized TR-FRET ligand displacement signal, dose-response replicates (SI Fig 6)", "setting": "[3]; Log[inhibitor] (M) -6.509", "result": "8.91E-01 and 9.55E-01 and 1.01E+00"}, {"measurement": "TR-FRET dose-response, normalized signal (SI Fig 11)", "setting": "[3]; Log[inhibitor] (M) -6.509", "result": "9.53E-01 and 9.49E-01 and 9.29E-01"}, {"measurement": "normalized TR-FRET ligand displacement signal, dose-response replicates (SI Fig 6)", "setting": "[3]; Log[inhibitor] (M) -6.796", "result": "1.03E+00 and 1.02E+00 and 9.73E-01"}, {"measurement": "TR-FRET dose-response, normalized signal (SI Fig 11)", "setting": "[3]; Log[inhibitor] (M) -6.796", "result": "9.39E-01 and 9.96E-01 and 9.21E-01"}, {"measurement": "normalized TR-FRET ligand displacement signal, dose-response replicates (SI Fig 6)", "setting": "[3]; Log[inhibitor] (M) -7.108", "result": "1.09E+00 and 9.83E-01 and 1.08E+00"}, {"measurement": "TR-FRET dose-response, normalized signal (SI Fig 11)", "setting": "[3]; Log[inhibitor] (M) -7.108", "result": "9.39E-01 and 9.94E-01 and 9.05E-01"}, {"measurement": "normalized TR-FRET ligand displacement signal, dose-response replicates (SI Fig 6)", "setting": "[3]; Log[inhibitor] (M) -7.409", "result": "9.62E-01 and 1.05E+00 and 9.54E-01"}, {"measurement": "TR-FRET dose-response, normalized signal (SI Fig 11)", "setting": "[3]; Log[inhibitor] (M) -7.409", "result": "9.56E-01 and 9.55E-01 and 9.01E-01"}, {"measurement": "normalized TR-FRET ligand displacement signal, dose-response replicates (SI Fig 6)", "setting": "[3]; Log[inhibitor] (M) -7.710", "result": "9.45E-01 and 1.01E+00 and 9.79E-01"}, {"measurement": "TR-FRET dose-response, normalized signal (SI Fig 11)", "setting": "[3]; Log[inhibitor] (M) -7.710", "result": "9.86E-01 and 9.70E-01 and 9.64E-01"}, {"measurement": "normalized TR-FRET ligand displacement signal, dose-response replicates (SI Fig 6)", "setting": "[3]; Log[inhibitor] (M) -8.000", "result": "1.07E+00 and 1.06E+00 and 9.51E-01"}, {"measurement": "TR-FRET dose-response, normalized signal (SI Fig 11)", "setting": "[3]; Log[inhibitor] (M) -8.000", "result": "9.84E-01 and 9.81E-01 and 9.67E-01"}, {"measurement": "normalized TR-FRET ligand displacement signal, dose-response replicates (SI Fig 6)", "setting": "[3]; Log[inhibitor] (M) -8.301", "result": "9.49E-01 and 8.91E-01 and 8.92E-01"}, {"measurement": "TR-FRET dose-response, normalized signal (SI Fig 11)", "setting": "[3]; Log[inhibitor] (M) -8.301", "result": "9.40E-01 and 1.01E+00 and 9.29E-01"}, {"measurement": "normalized TR-FRET ligand displacement signal, dose-response replicates (SI Fig 6)", "setting": "[3]; Log[inhibitor] (M) -8.602", "result": "9.06E-01 and 1.02E+00 and 1.07E+00"}, {"measurement": "TR-FRET dose-response, normalized signal (SI Fig 11)", "setting": "[3]; Log[inhibitor] (M) -8.602", "result": "9.70E-01 and 9.81E-01 and 9.77E-01"}, {"measurement": "normalized TR-FRET ligand displacement signal, dose-response replicates (SI Fig 6)", "setting": "[3]; Log[inhibitor] (M) -9.000", "result": "1.02E+00 and 8.38E-01 and 9.71E-01"}, {"measurement": "TR-FRET dose-response, normalized signal (SI Fig 11)", "setting": "[3]; Log[inhibitor] (M) -9.000", "result": "1.01E+00 and 9.79E-01 and 9.47E-01"}, {"measurement": "normalized TR-FRET ligand displacement signal, dose-response replicates (SI Fig 6)", "setting": "[3]; Log[inhibitor] (M) -9.301", "result": "9.40E-01 and 9.94E-01 and 9.82E-01"}, {"measurement": "TR-FRET dose-response, normalized signal (SI Fig 11)", "setting": "[3]; Log[inhibitor] (M) -9.301", "result": "9.53E-01 and 9.63E-01 and 8.99E-01"}, {"measurement": "HsProRS % signal at 10 μM", "setting": "[3]; no added proline/ATP (-), 10 μM", "result": 71.3, "unit": "%"}, {"measurement": "IC50", "setting": "[3]; read-out: HsProRS IC50 + 100 μM proline, + 100 μM proline", "result": "> 10", "unit": "µM"}]}
